Molecular target: T1, Nav1.7 (Homo sapiens, UniProt Q15858)
T1 construct: gene SCN9A; human Nav1.7 channels stably transfected in Expi293F cells
Test: automated whole-cell patch clamp (Qube-384); inverse apparent IC50 vs holding potential fit with four-state binding model
Assay type: cell-based

T1 sequence (Q15858 whole entry): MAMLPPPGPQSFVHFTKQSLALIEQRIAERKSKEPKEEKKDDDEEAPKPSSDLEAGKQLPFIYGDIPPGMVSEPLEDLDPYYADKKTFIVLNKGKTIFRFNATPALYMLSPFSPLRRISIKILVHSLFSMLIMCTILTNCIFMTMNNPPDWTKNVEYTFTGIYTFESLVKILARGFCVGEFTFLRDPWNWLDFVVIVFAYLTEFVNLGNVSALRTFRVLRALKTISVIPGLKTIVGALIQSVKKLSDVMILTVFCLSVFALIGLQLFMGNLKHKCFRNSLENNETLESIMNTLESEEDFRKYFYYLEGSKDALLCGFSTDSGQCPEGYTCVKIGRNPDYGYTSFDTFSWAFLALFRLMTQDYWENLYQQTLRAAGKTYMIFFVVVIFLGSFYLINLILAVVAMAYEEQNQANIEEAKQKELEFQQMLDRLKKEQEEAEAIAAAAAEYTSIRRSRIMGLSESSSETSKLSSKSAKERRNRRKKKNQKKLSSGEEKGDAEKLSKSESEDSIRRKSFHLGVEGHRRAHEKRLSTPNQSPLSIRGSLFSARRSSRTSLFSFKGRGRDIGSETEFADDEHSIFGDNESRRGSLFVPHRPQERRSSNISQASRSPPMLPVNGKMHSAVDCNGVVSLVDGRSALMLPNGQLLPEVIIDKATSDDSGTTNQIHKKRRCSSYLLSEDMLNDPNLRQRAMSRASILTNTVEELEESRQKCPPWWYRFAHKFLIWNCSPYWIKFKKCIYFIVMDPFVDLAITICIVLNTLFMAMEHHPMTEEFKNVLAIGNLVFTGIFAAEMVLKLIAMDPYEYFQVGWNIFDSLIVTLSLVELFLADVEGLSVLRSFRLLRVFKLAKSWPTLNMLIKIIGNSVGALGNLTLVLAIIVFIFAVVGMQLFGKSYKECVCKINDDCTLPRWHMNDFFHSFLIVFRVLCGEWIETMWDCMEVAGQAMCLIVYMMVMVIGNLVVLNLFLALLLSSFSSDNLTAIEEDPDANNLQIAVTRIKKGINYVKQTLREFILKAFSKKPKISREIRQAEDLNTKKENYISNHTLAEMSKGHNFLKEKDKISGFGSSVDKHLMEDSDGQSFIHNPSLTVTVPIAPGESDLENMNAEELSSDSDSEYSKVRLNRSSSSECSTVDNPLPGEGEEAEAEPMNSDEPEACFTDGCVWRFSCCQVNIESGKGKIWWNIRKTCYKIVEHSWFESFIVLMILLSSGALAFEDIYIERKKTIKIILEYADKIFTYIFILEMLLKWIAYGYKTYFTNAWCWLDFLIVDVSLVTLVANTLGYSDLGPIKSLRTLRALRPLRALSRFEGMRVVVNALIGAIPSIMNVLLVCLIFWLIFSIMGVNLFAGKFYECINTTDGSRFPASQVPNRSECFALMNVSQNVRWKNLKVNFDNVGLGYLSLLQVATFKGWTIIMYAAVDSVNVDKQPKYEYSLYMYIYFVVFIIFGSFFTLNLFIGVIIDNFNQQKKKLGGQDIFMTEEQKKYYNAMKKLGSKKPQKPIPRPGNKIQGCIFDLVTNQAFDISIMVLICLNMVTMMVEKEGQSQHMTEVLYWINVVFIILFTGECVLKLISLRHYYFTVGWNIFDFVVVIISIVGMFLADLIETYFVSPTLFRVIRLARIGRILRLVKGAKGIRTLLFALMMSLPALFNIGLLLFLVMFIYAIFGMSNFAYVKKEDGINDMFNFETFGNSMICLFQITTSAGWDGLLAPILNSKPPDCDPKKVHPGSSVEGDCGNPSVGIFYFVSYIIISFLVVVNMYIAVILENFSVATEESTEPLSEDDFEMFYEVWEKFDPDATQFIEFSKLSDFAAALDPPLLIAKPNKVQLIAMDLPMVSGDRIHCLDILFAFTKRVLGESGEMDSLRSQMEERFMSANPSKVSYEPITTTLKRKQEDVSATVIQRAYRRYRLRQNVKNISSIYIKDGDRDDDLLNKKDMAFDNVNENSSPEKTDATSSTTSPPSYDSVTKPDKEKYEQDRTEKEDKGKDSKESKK

Compound: CCC(C)(C)c1ccc(CC(C)CN2C[C@@H](C)O[C@@H](C)C2)cc1 (stereo partly shown) [AMF, amorolfine]
- Ki: 3.6 µM

Source: paper PMC12004706, “In vitro inhibition of voltage-dependent sodium currents by the antifungal drug amorolfine” (The Journal of Biological Chemistry, 2025)
